Laboratory results reported in patent US11642336B2, “5-HT2A agonists for use in treatment of depression” (priority 2019, dated 2023).
Where two headings read alike, the source gives them in different places.

Experiments:
[1] = system: Flinders Sensitive Line (FSL) rats; assay: forced swim test, Flinders Sensitive Line (FSL) model; assay type: in vivo; conditions: one hour after i.p. administration, vs vehicle-treated FSL rats, FIG. 3
Description: Male Flinders line rats (Flinders Sensitive Line (FSL) and their control Flinders Resistant Line (FRL); 9-11 weeks of age; 228-336 g) from the colony maintained at (TNU), Aarhus University (originally derived from the colony at the University of North Carolina, USA) were housed in pairs (Cage 1291H Eurostandard Type III H, 425×266×185 mm, Techniplast, Buguggiate, Italy) at 20±2° C. on a 12-h light/dark cycle (lights on at 07:00 am). The animals had ad libitum access to chow pellets and tap water. The animal colony was protected from outside noise, and all experimental procedures were performed in specially equipped rooms within the vivarium. […]
The following groups were included in the experiment: FRL-vehicle (n=10), FSL-vehicle (n=10), FSL-ketamine (15 mg/kg S-ketamine, Pfizer) (n=8), and FSL-compound 8 (1.5 mg/kg) (n=10). […] A camera, located directly above the center of the field, recorded the session and the total distance moved was quantified using EthoVision XT video tracking software (version 11.0.928; Noldus Information Technology, Wageningen, The Netherlands).
The rat was placed in an acrylic plastic cylinder (60 cm in height, 24 cm in diameter) containing 40 cm of water (25±1° C.) for 7 min. A camera, located directly in front of the cylinder, recorded the session. […]

[2] = target: a2C (Homo sapiens (Human), UniProt P18825); assay: radioligand competition binding assay (Psychiatric Drug Screening Program)
Chain of a2C (P18825 whole entry, looked up): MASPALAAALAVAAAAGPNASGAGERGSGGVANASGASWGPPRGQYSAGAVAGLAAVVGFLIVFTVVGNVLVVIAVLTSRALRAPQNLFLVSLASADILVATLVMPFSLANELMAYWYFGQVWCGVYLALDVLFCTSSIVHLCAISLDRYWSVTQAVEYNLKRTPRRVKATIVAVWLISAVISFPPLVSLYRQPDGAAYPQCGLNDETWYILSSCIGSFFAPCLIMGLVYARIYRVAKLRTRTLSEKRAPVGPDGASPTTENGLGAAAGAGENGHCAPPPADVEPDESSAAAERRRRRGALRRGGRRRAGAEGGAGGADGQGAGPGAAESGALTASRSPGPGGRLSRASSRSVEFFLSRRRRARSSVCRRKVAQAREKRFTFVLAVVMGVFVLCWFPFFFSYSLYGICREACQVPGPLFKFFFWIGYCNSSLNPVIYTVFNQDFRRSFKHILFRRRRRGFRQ

[3] = target: 5-HT1D (Homo sapiens (Human), UniProt P28221); assay: as above
Chain of 5-HT1D (P28221 whole entry, looked up, species assumed): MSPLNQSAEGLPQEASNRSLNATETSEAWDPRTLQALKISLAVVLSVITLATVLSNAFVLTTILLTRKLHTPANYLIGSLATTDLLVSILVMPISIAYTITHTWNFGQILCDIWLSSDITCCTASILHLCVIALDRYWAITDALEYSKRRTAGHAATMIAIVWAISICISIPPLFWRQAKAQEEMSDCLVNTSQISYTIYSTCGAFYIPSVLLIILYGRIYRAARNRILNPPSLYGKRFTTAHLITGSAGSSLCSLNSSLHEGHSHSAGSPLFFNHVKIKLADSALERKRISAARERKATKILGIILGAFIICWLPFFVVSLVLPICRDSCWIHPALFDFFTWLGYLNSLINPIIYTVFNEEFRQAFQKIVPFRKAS

[4] = target: 5-HT1e (Homo sapiens (Human), UniProt P28566); assay: as above
Chain of 5-HT1e (P28566 whole entry, looked up, species assumed): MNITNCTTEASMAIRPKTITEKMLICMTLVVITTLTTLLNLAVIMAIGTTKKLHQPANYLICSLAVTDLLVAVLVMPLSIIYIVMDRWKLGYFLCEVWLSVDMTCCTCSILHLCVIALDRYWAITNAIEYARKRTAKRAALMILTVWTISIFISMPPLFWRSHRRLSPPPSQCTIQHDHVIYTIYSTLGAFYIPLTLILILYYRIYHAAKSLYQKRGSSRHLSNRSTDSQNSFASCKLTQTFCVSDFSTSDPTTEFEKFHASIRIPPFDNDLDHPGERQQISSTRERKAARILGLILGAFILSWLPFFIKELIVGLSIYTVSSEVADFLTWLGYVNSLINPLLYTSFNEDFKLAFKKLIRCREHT

[5] = target: T1, 5-HT2B (Homo sapiens (Human), UniProt P41595); assay: as above
[6] = target: a2A (Homo sapiens (Human), UniProt P08913); assay: as above
Chain of a2A (P08913 whole entry, looked up): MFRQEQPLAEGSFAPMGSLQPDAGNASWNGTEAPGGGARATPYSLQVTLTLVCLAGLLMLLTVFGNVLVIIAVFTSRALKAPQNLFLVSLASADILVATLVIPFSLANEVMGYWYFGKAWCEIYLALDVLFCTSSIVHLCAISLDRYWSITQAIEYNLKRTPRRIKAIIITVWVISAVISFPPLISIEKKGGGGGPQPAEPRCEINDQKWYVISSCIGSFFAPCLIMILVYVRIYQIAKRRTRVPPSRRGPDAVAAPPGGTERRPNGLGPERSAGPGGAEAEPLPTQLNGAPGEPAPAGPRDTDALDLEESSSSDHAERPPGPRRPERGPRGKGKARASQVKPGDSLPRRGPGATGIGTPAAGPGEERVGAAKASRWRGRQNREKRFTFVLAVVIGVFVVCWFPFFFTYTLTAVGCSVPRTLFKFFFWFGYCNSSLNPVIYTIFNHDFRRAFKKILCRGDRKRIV

[7] = target: T1, 5-HT2B; assay: fluorescence-based Ca2+ imaging assay (Eurofins), stable h5-HT2B cell line
[8] = target: T2, human 5-HT2A (Homo sapiens (Human), UniProt P28223); assay: cell-based; assay type: cell-based; conditions: IP assay
[9] = target: 5-HT1A (Homo sapiens (Human), UniProt P08908); assay: radioligand competition binding assay (Psychiatric Drug Screening Program)
[10] = target: T3, 5-HT2C (Homo sapiens (Human), UniProt P28335); assay: Ca2+/Fluo-4 assay, stable h5-HT2C-HEK293 cell line; assay type: cell-based;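 note: Agonist-induced intracellular Ca2+ rise read by Fluo-4 fluorescence in HEK293 cells stably expressing the human 5-HT2C receptor, each compound run in duplicate on three or more occasions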
[11] = target: a1B (Homo sapiens (Human), UniProt P35368); assay: radioligand competition binding assay (Psychiatric Drug Screening Program)
Chain of a1B (P35368 whole entry, looked up): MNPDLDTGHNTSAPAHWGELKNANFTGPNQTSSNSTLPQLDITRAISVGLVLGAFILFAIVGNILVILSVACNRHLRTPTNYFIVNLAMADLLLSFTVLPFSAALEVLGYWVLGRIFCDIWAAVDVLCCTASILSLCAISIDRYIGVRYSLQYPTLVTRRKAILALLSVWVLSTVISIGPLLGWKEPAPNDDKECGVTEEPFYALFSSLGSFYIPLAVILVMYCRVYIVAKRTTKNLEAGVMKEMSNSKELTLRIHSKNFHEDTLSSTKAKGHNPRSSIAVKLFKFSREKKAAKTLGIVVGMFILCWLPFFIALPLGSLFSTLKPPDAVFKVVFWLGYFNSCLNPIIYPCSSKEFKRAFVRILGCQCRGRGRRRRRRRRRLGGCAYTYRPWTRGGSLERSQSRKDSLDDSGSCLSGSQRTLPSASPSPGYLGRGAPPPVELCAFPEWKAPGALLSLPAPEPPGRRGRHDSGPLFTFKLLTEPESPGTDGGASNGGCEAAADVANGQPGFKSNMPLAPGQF

[12] = target: T2, human 5-HT2A; assay: cell-based; assay type: cell-based
[13] = target: 5-HT6 (Homo sapiens (Human), UniProt P50406); assay: radioligand competition binding assay (Psychiatric Drug Screening Program)
Chain of 5-HT6 (P50406 whole entry, looked up, species assumed): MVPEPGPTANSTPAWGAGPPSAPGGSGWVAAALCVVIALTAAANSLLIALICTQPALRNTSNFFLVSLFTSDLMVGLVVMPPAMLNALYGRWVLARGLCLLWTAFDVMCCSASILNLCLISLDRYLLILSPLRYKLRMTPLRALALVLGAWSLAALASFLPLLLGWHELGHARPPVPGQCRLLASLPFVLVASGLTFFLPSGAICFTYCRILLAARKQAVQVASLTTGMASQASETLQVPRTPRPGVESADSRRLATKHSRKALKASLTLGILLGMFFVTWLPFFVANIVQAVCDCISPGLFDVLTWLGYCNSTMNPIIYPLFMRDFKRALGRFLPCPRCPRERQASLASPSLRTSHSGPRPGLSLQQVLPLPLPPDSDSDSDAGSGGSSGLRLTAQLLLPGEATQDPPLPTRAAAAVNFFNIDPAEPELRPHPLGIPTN

[14] = target: 5-HT7 (Homo sapiens (Human), UniProt P34969); assay: as above
Chain of 5-HT7 (P34969 whole entry, looked up, species assumed): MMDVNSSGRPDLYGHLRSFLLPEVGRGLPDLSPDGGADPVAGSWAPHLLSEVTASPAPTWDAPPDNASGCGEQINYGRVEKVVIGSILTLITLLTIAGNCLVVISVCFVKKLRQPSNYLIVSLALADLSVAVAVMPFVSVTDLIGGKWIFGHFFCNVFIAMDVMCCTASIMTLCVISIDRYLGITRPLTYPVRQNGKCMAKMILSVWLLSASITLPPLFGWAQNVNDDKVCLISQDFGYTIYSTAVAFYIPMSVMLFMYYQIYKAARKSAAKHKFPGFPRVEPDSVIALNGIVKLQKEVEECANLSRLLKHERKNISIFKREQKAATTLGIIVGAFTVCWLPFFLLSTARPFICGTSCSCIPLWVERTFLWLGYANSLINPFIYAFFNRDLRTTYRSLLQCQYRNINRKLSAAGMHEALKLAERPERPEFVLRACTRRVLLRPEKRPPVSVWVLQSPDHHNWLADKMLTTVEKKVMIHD

[15] = target: a1A (Homo sapiens (Human), UniProt P35348); assay: as above
Chain of a1A (P35348 whole entry, looked up): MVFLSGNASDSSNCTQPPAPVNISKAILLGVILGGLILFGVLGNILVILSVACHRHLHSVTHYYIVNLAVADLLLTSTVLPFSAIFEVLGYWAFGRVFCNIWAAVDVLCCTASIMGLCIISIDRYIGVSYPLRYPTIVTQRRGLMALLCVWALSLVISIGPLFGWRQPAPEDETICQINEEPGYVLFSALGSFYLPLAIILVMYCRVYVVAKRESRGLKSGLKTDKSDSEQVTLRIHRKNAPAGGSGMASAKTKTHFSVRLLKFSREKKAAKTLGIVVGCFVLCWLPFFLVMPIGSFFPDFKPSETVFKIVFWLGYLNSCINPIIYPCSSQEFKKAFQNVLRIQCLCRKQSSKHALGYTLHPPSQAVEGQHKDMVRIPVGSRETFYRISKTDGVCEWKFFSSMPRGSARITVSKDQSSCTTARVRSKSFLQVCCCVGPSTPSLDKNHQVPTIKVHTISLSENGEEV

[16] = target: T3, 5-HT2C; assay: biochemical; assay type: binding
[17] = target: a2B (Homo sapiens (Human), UniProt P18089); assay: radioligand competition binding assay (Psychiatric Drug Screening Program)
Chain of a2B (P18089 whole entry, looked up): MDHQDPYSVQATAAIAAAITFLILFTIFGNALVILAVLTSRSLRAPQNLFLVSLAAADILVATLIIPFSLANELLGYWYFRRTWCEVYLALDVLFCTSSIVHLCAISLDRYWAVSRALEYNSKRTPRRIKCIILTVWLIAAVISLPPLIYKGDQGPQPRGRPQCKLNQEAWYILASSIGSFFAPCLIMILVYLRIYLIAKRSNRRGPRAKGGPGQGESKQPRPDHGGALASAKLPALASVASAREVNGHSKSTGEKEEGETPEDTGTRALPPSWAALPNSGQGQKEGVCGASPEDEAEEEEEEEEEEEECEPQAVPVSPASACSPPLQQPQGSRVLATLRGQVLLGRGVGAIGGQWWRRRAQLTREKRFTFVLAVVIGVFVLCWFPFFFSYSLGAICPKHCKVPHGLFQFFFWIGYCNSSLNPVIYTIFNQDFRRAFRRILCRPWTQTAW

[18] = system: 5-HT2A over 5-HT2C; conditions: cited from earlier work
[19] = target: T1, 5-HT2B; assay: IP assay (Eurofins, IP1 HTRF), HEK293 cells; assay type: cell-based;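 for 5-HT2B agonist activity (n.a./w.a.): agonist effect read as cellular IP1 production by HTRF using a europium cryptate anti-IP1 antibody donor and D2-labeled IP1 acceptor, eight compound concentrations in each cell line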
[20] = target: T3, 5-HT2C; assay: IP assay (Eurofins, IP1 HTRF), HEK293 cells; assay type: cell-based; conditions: IP assay
[21] = target: D2 (Homo sapiens (Human), UniProt P14416); assay: radioligand competition binding assay (Psychiatric Drug Screening Program)
[22] = target: T1, 5-HT2B; conditions: % of the Rmax of 5-HT; cited from earlier work
[23] = target: 5-HT1B (Homo sapiens (Human), UniProt P28222); assay: radioligand competition binding assay (Psychiatric Drug Screening Program)
[24] = system: 5-HT2C; conditions: cited from earlier work
[25] = target: D1 (Homo sapiens (Human), UniProt P21728); assay: radioligand competition binding assay (Psychiatric Drug Screening Program)
[26] = target: 5-HT5A (Homo sapiens (Human), UniProt P47898); assay: as above
Chain of 5-HT5A (P47898 whole entry, looked up, species assumed): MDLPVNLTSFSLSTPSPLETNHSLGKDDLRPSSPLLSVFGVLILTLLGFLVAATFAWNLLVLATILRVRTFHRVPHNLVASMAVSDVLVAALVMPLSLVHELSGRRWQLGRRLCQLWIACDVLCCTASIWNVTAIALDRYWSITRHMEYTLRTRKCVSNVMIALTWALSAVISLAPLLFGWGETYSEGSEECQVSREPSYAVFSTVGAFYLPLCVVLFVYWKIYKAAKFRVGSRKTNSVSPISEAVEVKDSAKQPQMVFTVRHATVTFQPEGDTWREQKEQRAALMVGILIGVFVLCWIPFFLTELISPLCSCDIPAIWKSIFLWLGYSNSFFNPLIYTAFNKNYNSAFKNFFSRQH

[27] = system: 5-HT2A; conditions: cited from earlier work
[28] = target: D4 (Homo sapiens (Human), UniProt P21917); assay: radioligand competition binding assay (Psychiatric Drug Screening Program)
[29] = target: D5 (Homo sapiens (Human), UniProt P21918); assay: as above
Chain of D5 (P21918 whole entry, looked up): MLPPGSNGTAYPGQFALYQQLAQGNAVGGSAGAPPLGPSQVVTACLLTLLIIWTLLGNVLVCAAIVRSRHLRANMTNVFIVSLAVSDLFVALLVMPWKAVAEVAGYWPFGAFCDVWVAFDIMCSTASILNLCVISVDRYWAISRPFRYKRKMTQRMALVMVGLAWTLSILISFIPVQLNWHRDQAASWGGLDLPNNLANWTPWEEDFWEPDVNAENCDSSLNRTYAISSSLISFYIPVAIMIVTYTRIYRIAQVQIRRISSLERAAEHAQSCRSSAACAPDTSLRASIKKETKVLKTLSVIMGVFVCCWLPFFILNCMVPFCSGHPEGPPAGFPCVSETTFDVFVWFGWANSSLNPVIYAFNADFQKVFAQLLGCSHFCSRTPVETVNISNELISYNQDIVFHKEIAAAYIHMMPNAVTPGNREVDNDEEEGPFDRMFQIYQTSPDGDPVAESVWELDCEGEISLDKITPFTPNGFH

[30] = target: D3 (Homo sapiens (Human), UniProt P35462); assay: as above
[31] = Rmax ± S.D., % of the Rmax of 5-HT

CN[C@]1(c2ccccc2Cl)CCCCC1=O [(S)-ketamine]
immobility time in the forced swim test [1]: reduce the immobility time

COc1cc(C(F)(F)F)c(OC)cc1[C@@H]1CCCNC1.Cl [Compound 8, (S)-3-(2,5-Dimethoxy-4-(trifluoromethyl)phenyl)piperidine hydrochloride]
Ki [2]: > 10000 nM | Ki ([3]; read-out: Ki (nM) 5-HT1D): 663 nM | Ki [4]: 762 nM | Ki [5]: 85 nM | Ki ([6]; read-out: Ki (nM) a2A): 1400 nM | 5-HT2B Rmax ([7]; % of the Rmax of 5-HT): 84% | EC50 ([7]; agonist potency): 280 nM | 5-HT2A Rmax ([8]; % of Rmax of 5-HT): 74% | Ki [9]: 330 nM | EC50 ([10]; agonist potency, n = 3-4, read-out: 5-HT2C EC50): > 50 µM | Ki ([11]; read-out: Ki (nM) a1B): > 10000 nM | 5-HT2A Rmax ± S.E.M ([12]; % of the Rmax of 5-HT): 47 ± 3% | Ki [13]: 623 nM | Ki [14]: 2360 nM | Ki ([15]; read-out: Ki (nM) a1A): > 10000 nM | Ki [16]: 42 nM | Ki [17]: 820 nM

COc1cc([C@H]2CC[C@H](c3ccccc3OC)NC2)c(OC)cc1Br [Compound 8b, reference compound]
5-HT2A-over-5-HT2C selectivity in terms of binding affinity [18]: 27 fold | agonist response at 5-HT2A ([8]; concentrations up to 100 μM): no agonist response | EC50 ([8]; duplicate determinations): > 100 µM | 5-HT2A agonist activity (n.a./w.a.) ([8]; up to 100 μM (Table 4)): n.a. (no agonist activity: the compound did not evoke significant responses at concentrations up to 100 μM) | 5-HT2C agonist activity (n.a./w.a.) ([10]; tested up to 50 μM): w.a. [@ 10-50 μM] | agonist response at 5-HT2A ([12]; Ca2+/Fluo-4 assay, concentrations up to 50 μM): no agonist response | 5-HT2A agonist activity (n.a./w.a.) ([12]; tested up to 50 μM): w.a. [@ 10-50 μM] | EC50 ([19]; duplicate determinations, read-out: 5-HT2B EC50): > 100 µM | 5-HT2B agonist activity (n.a./w.a.) ([19]; up to 100 μM (Table 4)): n.a. (no agonist activity: the compound did not evoke significant responses at concentrations up to 100 μM) | EC50 ([20]; duplicate determinations, read-out: 5-HT2C EC50): > 100 µM | 5-HT2C agonist activity (n.a./w.a.) ([20]; up to 100 μM (Table 4)): w.a.

CN(C)CCc1c[nH]c2cccc(O)c12 [Psilocin, psilocin]
Ki [21]: > 10 µM | Rmax (%) 5-HT2B [22]: 45% | Ki [2]: 4400 nM | Ki [3]: 19 nM | Ki [4]: 44 nM | Ki [6]: 2000 nM | Ki [23]: 305 nM | Ki [9]: 63 nM | EC50 ([24]; EC50 ± S.D.): 30 ± 18 nM | Rmax (%) 5-HT2C [24, 31]: 51 ± 37% | Ki [11]: > 10000 nM | Ki [25]: 20 nM | Ki [26]: 70 nM | EC50 ([27]; EC50 ± S.D.): […] | Rmax (%) 5-HT2A [27, 31]: […] | Ki [13]: 72 nM | Ki [28]: > 10 µM | Ki [14]: 72 nM | Ki [29]: > 10 µM | Ki [15]: > 10000 nM | Ki [30]: 100 nM
